Reference: ChEMBL document CHEMBL1201862, “PubChem BioAssay data set” (2004)
Activity calls are given as the source filed them.

Legend:
[1] = biological target: Sphingosine 1-phosphate receptor 2 (Homo sapiens, UniProt O95136); experiment: Dose Response Cell Based Assay for Antagonists of the S1P2 Receptor. [Related pubchem assays: 856, 736 ]; type: functional
[2] = system: BJ; experiment: growth inhibition of engineered Ras-driven BJ cells – cell-based, alamar blue fluorescence, cherrypicked samples, dose response (AID 2631); type: functional; conditions: Homo sapiens;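 note: confirmatory dose-response assay in RAS-dependent BJ fibroblasts engineered with TERT, LT and ST, with cytotoxicity read by fluorescence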
[3] = DRD fibroblast viability loss – cell-based, non-viral oncogenic, luminescence, dose response (AID 1934); type: functional; conditions: Homo sapiens
[4] = Luminescence-based dose response cell-based high throughput screening assay for cytotoxic compounds using the IEC-6 intestinal epithelial cell line. [Related pubchem assays: 1858 (Summary AID.), 1825 (Counterscreen.), 1907 (Confirmation screen.)]; type: functional
[5] = HEK-293T viability loss after treatment – luminescence, T-cell screen hits, cytotoxicity control for TCR NF-kB inhibitor project, dose response (AID 489026); type: functional, cell-based;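 note: cells exposed to compound about 14 hours before the viability readout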
[6] = system: BJ; experiment: cells; type: functional, cell-based; conditions: Homo sapiens
[7] = system: BJ; experiment: BJ-TERT fibroblast viability loss – cell-based, RAS-independent, luminescence, dose response (AID 1933); type: functional; conditions: Homo sapiens
[8] = biological target: Paired box protein Pax-8 (Homo sapiens, UniProt Q06710); experiment: PAX8 transcriptional activity inhibition in RMG-I – RMG-I cells, luciferase, cherry-pick, dose response (AID 687027); type: functional, cell-based;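 note: luciferase reporter driven by Pax8 target thyroperoxidase promoter measured by SteadyGlo luminescence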
Chain of Paired box protein Pax-8 (Q06710 whole entry): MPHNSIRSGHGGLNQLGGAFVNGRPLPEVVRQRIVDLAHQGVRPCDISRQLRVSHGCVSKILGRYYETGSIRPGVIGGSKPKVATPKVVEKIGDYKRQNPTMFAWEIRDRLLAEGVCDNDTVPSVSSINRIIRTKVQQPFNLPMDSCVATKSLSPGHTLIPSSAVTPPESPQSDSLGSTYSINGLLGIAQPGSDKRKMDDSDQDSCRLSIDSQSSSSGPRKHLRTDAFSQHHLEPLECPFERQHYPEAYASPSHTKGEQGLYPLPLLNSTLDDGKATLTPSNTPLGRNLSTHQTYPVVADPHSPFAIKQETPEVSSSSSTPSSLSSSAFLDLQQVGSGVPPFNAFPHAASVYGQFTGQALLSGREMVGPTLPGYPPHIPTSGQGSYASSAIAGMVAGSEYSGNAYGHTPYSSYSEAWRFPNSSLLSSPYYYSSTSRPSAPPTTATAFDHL

[9] = biological target: Phospholipase D1 (Homo sapiens, UniProt Q13393); experiment: PLD1 Cellular Concentration Response Study.; type: functional
Chain of Phospholipase D1 (Q13393 whole entry): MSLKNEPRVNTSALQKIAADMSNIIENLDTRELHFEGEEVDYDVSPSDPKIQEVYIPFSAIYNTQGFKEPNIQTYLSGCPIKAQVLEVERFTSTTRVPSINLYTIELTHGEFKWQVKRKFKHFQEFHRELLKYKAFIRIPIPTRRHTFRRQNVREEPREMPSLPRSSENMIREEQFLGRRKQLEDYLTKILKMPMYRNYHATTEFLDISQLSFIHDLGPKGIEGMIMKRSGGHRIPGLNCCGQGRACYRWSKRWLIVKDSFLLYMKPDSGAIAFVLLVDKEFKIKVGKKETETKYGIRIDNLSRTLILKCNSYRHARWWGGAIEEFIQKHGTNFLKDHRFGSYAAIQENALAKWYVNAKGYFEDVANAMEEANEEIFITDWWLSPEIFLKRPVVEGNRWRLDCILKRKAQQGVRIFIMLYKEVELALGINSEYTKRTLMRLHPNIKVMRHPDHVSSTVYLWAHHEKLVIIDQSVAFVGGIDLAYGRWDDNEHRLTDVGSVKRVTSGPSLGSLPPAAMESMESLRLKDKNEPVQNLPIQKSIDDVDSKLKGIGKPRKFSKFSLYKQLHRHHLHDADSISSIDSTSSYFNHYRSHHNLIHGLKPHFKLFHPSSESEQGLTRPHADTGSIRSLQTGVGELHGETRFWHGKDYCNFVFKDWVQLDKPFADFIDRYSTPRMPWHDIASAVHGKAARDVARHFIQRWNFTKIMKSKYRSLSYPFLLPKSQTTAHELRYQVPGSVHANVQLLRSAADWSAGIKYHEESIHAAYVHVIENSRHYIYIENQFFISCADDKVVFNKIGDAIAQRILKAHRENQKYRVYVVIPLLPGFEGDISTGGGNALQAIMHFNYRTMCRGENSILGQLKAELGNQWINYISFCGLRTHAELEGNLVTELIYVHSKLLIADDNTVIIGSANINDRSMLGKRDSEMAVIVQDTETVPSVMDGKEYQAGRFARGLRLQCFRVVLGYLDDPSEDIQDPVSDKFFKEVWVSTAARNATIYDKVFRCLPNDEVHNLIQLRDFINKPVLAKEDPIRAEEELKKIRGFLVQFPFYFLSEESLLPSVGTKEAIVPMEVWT

[10] = biological target: Phospholipase D2 (Homo sapiens, UniProt O14939); experiment: PLD2 Cellular Concentration Response Study.; type: functional
Chain of Phospholipase D2 (O14939 whole entry): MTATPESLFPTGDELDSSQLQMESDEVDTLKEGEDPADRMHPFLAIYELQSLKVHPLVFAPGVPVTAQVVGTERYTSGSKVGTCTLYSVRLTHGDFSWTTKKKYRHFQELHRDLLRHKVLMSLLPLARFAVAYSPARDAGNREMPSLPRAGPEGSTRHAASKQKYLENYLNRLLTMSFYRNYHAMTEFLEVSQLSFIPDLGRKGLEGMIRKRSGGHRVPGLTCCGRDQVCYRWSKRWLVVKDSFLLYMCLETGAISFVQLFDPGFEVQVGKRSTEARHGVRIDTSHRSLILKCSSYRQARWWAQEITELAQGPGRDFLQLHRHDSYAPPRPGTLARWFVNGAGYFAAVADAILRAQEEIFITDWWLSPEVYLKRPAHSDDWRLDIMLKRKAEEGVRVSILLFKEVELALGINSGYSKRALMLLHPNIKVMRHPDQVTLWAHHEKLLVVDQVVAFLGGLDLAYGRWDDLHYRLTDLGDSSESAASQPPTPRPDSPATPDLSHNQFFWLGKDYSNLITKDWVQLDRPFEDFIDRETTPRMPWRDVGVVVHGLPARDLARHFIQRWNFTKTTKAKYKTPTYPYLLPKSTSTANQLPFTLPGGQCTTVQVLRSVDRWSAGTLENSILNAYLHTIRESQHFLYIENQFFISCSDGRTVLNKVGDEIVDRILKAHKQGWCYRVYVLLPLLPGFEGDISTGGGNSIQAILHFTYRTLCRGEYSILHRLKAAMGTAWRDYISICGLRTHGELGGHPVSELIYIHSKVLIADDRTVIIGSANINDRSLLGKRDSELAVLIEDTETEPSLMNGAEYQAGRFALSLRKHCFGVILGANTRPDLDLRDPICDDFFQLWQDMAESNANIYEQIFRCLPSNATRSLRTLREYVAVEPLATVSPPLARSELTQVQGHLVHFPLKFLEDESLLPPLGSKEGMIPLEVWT

[11] = biological target: Aryl hydrocarbon receptor (Homo sapiens, UniProt P35869); experiment: Luminescence-based cell-based high throughput dose response assay for activators of the Aryl Hydrocarbon Receptor (AHR). [Related pubchem assays: 2796 (Primary screen (AHR activators in singlicate)), 2845 (Confirmation screen (AHR activators in triplicate)), 434939 (Counterscreen (PXR activators in triplicate)), 2804 (Summary (AHR activators))]; type: ADME
Chain of Aryl hydrocarbon receptor (P35869 whole entry): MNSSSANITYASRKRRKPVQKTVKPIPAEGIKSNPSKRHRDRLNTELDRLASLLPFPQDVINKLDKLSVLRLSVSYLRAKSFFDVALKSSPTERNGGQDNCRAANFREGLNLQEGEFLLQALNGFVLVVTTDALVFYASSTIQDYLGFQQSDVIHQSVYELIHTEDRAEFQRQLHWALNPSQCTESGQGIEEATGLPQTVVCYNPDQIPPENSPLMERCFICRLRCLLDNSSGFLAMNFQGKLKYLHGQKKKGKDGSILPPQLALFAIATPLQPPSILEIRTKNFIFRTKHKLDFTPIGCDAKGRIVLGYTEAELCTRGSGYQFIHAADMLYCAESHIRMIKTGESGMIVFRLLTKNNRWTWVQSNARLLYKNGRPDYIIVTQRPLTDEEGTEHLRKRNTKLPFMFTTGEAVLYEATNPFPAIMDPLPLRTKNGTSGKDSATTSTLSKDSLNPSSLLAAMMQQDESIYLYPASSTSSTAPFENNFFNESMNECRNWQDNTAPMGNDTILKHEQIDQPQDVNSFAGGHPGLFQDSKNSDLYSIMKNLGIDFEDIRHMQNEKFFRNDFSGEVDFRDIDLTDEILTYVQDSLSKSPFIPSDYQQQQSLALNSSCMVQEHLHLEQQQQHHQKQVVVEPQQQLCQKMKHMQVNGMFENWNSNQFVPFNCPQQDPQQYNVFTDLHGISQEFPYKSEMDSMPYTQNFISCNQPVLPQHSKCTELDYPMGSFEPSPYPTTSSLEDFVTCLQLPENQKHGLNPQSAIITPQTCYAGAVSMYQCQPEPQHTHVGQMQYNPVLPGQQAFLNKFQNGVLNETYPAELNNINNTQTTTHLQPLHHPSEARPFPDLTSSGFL

[12] = Luminescence Cell-Based Dose Response to Identify Activators of 5'UTR Stem-Loop Driven Prion Protein mRNA Translation in H4-C Neuroglioblastoma Cells. [Related pubchem assays: 1829 (Project Summary), 1814 (Primary HTS)]; type: functional
[13] = system: H4; experiment: Luminescence Cell-Based Dose Response HTS to Identify Activators of 5'UTR Stem-Loop Driven Prion Protein mRNA Translation in H4 Neuroglioblastoma Cells. [Related pubchem assays: 1829 (Project Summary), 1814 (Primary HTS)]; type: functional; conditions: Homo sapiens
[14] = Luminescence Cell-Based Dose Confirmation to Identify Activators of 5'UTR Stem-Loop Driven Alpha-Synuclein mRNA Translation in H4 Neuroglioblastoma Cells. [Related pubchem assays: 1829 (Project Summary), 1814 (Primary HTS)]; type: functional
[15] = Luminescence Cell-Based Dose Response to Identify Activators of Luciferase Translation or Activity in H4-C Neuroglioblastoma Cells. [Related pubchem assays: 1829 (Project Summary), 1814 (Primary HTS)]; type: functional
[16] = Luminescence Cell-Based Dose Response HTS to Identify Activators of Luciferase Translation or Activity in H4 […] Cells. [Related pubchem assays: 1829 (Project Summary), 1814 (Primary HTS)]; type: functional
[17] = Luminescence Cell-Based Dose Confirmation HTS to Identify Activators of 5'UTR Stem-Loop Driven Alpha-Synuclein mRNA Translation in H4 Neuroglioblastoma Cells. [Related pubchem assays: 1829 (Project Summary), 1814 (Primary HTS)]; type: functional
[18] = biological target: Luciferin 4-monooxygenase (Photinus pyralis, UniProt P08659); experiment: inhibition of purified Photinus pyralis luciferase – biochemical, luminescence, dose response (AID 1891)
Chain of Luciferin 4-monooxygenase (P08659 whole entry): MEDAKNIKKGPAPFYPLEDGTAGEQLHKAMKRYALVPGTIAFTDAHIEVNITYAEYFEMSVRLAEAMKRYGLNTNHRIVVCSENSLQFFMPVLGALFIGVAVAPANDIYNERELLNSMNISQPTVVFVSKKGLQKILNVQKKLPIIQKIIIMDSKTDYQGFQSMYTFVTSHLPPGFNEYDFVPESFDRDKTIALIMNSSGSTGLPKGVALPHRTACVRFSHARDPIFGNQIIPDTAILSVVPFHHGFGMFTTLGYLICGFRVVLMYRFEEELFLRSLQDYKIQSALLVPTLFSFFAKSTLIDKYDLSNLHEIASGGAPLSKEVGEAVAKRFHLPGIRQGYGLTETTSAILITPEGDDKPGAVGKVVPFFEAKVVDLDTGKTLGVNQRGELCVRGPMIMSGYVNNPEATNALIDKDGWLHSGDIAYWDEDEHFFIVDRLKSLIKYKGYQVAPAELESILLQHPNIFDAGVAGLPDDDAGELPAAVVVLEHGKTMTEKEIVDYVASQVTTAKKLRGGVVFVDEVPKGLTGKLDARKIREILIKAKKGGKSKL

[19] = biological target: E3 ubiquitin-protein ligase Mdm2 (Homo sapiens, UniProt Q00987); experiment: MDM2-luc reporter signal enhancers, multi-concentration potency testing, MDM2 ubiquitin-protein ligase inhibitor program, whole-cell format, luminescence detection, 384-well microplate (AID 1394); type: functional;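 note: MDM2 E3 inhibitors raise luminescence so EC50 is for signal enhancement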
Chain of E3 ubiquitin-protein ligase Mdm2 (Q00987 whole entry): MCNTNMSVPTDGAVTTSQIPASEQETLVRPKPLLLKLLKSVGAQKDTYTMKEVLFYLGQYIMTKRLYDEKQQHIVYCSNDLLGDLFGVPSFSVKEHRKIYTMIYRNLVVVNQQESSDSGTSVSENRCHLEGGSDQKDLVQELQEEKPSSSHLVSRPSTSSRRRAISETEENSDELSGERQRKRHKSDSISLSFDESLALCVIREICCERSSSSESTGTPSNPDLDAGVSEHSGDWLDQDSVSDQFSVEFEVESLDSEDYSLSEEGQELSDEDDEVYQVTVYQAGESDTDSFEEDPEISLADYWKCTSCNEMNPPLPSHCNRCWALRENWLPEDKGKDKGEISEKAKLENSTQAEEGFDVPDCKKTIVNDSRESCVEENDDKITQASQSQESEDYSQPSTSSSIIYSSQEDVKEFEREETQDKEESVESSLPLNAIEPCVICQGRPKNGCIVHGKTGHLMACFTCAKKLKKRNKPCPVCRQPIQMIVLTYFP

[20] = Luminescence Cell-Based Dose Confirmation HTS to Identify Inhibitors of Platelet Dense Granule Release. [Related pubchem assays: 1663 (Primary HTS), 1678 (Summary of Project)]; type: functional
[21] = IC50 of insulin release inhibition, rat insulinoma INS-1E line, 5 mM glucose, cell-based (AID 1117331); type: functional
[22] = glucagon-like peptide-1 release potency in STC-1, concentration-response, half-maximal inhibitory concentration in the STC-1 line (AID 1117345); type: functional, cell-based
[23] = Luminescence Cell-Based Dose Retest to Confirm Inhibitors of Cancer Stem Cells. [Related pubchem assays (depositor defined):AID2717, AID2721]; type: functional, Homo sapiens; conditions: Homo sapiens
[24] = Potency on glucagon-like peptide 1 release, dose-response in NCI-H716 cell line, half maximal inhibitory concentration (AID 1117344); type: functional, cell-based

Chain of Sphingosine 1-phosphate receptor 2 (O95136 whole entry): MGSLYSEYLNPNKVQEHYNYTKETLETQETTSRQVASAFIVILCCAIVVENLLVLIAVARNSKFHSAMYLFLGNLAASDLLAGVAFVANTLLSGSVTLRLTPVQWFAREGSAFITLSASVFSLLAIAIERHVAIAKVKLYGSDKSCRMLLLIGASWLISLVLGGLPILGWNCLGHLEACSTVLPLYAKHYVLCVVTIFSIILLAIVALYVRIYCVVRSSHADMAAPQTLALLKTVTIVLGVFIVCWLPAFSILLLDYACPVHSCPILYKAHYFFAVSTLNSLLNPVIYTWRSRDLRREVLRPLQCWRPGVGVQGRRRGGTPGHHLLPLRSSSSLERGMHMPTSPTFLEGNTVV

O=C(Nc1ccc(F)cc1)c1cccs1
IC50 [1]: > 30 µM (not active)

COc1ccc(/C=N/NC(=O)c2[nH]c3ccc(Br)cc3c2-c2ccccc2)cc1
EC50 [2]: 0.0886 µM (active)
EC50 [3]: 0.361 µM (active)
IC50 [4]: 0.296 µM (active)
IC50 [5]: > 80 µM (inactive)
EC50 [6]: 34.8 µM (inconclusive)
EC50 [7]: < 0.12 µM (inconclusive)
AC50 [8]: < 0.5 µM (active)

O=C(NCCN1CCC2(CC1)C(=O)NCN2Cc1ccccc1Br)c1ccc2ccccc2c1
IC50 [9]: 1.68 µM (active)
IC50 [10]: 0.16 µM (active)

CCC(=O)Nc1cc(OC)c(NC(=O)c2ccccc2)cc1OC
EC50 [11]: 1.85 µM (active)

COc1cccc(NC(=O)C(=O)N/N=C(\C)CC(=O)Nc2ccc(NC(C)=O)cc2)c1
EC50 [12]: > 12 µM (not active)
EC50 [13]: 25.6 µM (active)
EC50 [14]: 1.25 µM (active)
EC50 [15]: > 12 µM (not active)
EC50 [16]: 9.31 µM (active)
EC50 [17]: < 0.1 µM (active)

Cc1nnc(SCCN2CCOCC2)c2nn(-c3ccccc3F)c(C)c12
EC50 [18]: > 112 µM (not active)
EC50 [19]: 2.43 µM (not active)
EC50 [20]: > 112 µM (not active)

O=C1Nc2ccc(Cl)cc2[C@@](C#CC2CC2)(C(F)(F)F)O1 [EFAVIRENZ]
IC50 [21]: 3.87 µM (active)
IC50 [22]: 2.48 µM (active)
AC50 [23]: 6.38 µM (active)
IC50 [24]: 21.2 µM (inactive)
